In patent publication US20230203098A1, “HUMAN TRANSFERRIN RECEPTOR BINDING PEPTIDE” (priority 2020, published 2023):
Like-named read-outs stand apart in the source and are kept apart here. Values belong to the molecule of their own block, whether it stands above or below them. *1 amine or outer side, *2 acyl side, *3 side chain or, on linkers, in order; H or OH if unused. Where a SMILES comes first, the peptide text is derived from it. Bridges are numbered along the chain shown (N, C = ends). [ ]: non-standard residue; d: D form. The star is where a group is joined. X2 = O=C(O)c1cc(C(=O)*)ccc1-c1c2ccc(=O)cc-2oc2cc(O)ccc12; PEG12 = NCCOCCOCCOCCOCCOCCOCCOCCOCCOCCOCCOCCOCCC(=O)O; X3 = NC(=O)Cn1cc(C[C@H](N[*:1])C(=O)[*:2])c2ccccc21; NMePhe(3-Cl) = CN[C@@H](Cc1cccc(Cl)c1)C(=O)O; NMeW = CN[C@@H](Cc1c[nH]c2ccccc12)C(=O)O; NMeY = CN[C@@H](Cc1ccc(O)cc1)C(=O)O; NMeH = CN[C@@H](Cc1c[nH]cn1)C(=O)O; NMeF = CN[C@@H](Cc1ccccc1)C(=O)O; PEG4 = NCCOCCOCCOCCOCCC(=O)O; Nle = CCCC[C@H](N)C(=O)O; Aib = CC(C)(N)C(=O)O

Biological target: transferrin receptor (hTfR) (Homo sapiens, UniProt P02786)
Sequence (P02786 whole entry): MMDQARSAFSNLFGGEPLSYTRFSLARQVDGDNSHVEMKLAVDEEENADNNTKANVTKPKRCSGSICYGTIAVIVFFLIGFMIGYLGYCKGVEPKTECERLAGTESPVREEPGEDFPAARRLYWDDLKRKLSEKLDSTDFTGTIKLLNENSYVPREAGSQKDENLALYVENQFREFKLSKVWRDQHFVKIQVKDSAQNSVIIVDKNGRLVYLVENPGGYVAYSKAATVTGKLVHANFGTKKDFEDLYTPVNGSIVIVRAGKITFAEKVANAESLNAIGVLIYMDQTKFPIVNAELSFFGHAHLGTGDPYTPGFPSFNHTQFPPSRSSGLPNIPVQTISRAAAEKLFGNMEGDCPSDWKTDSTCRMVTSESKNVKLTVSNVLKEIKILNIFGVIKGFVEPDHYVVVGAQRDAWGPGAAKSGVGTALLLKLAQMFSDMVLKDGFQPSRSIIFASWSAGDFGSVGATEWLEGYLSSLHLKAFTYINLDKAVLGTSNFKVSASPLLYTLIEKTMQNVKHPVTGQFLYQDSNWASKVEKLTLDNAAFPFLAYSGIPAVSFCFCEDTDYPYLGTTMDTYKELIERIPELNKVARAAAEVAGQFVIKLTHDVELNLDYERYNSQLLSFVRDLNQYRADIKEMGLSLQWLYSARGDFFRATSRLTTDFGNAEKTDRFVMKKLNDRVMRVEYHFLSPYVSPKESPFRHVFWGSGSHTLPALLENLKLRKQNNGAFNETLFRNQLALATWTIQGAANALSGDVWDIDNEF
Assay: Intermolecular interaction evaluation test between transferrin receptor (hTfR) and peptide by surface plasmon resonance (SPR)
Type: binding
Experimental: For each of the various synthesized peptides, the intermolecular interaction of the peptide with the transferrin receptor (hTfR) was tested by surface plasmon resonance (SPR) according to the following method. The specific test method is as follows.
An NTA sensor chip (Global Life Sciences Technologies Japan) was inserted in a Biacore T200 (Global Life Sciences Technologies Japan) and a prime operation was performed 3 times with a running buffer: 10 mM HEPES pH 8.0 (Nacalai Tesque), 150 mM NaCl (Nacalai Tesque), 0.05% Tween 20 (Nacalai Tesque), 0.1% BSA (Sigma-Aldrich), 1.0% DMSO (FUJIFILM Wako Pure Chemical) to create an Equilibration state at a flow rate of 30 µL/min. After reacting with 350 mM EDTA solution for 60 seconds at a flow rate of 10 µL/min then reacting with 0.5 mM NiCl2 solution (Kishida Chemical) for 60 seconds at a flow rate of 10 µL/min, the NTA sensor chip was washed with 3 mM EDTA solution (Nacalai Tesque) for 60 seconds at a flow rate of 10 µL/min. After mixing 50 µL each of 60 mM EDC solution (Global Life Sciences Technologies Japan) and 650 mM NHS solution (Global Life Sciences Technologies Japan), the mixture was reacted for 420 seconds at a flow rate of 10 µL/min. By diluting with the running buffer, 150 µL of 3.2 µM hTfR solution was prepared and used for reaction for 600 seconds at a flow rate of 10 µL/min, thereby immobilizing hTfR on the NTA sensor chip. After immobilization, capping was performed by reacting with 1.0 M ethanolamine aqueous solution (Global Life Sciences Technologies Japan) for 420 seconds at a flow rate of 10 µL/min. A peptide dissolution liquid prepared to 10 mM in the DMSO solution was diluted with the running buffer to a final concentration of 10 µM so as to become the peptide dissolution liquid, then peptide solutions of 100 nM, 50 nM, 25 nM, 10 nM and 5 nM were prepared. Kinetics of the peptide to hTfR was acquired by SPR measurement using the above-mentioned samples. Single-cycle kinetics was used as a kinetic evaluation model and curve fitting was performed using Biacore T200 Evaluation Software Version 3.0 (Global Life Sciences Technologies Japan). An obtained sensorgram was subjected to curve fitting using the least-squares method, and the binding of the peptide to hTfR was evaluated by obtaining KD values. […] A chemical structure of hTfR No. 894 is as follows.
The variant peptides were synthesized according to Example 1 unless otherwise stated in Example 9 or 10. The linker-added peptides were synthesized according to Example 1, except that Fmoc-NH-SAL-PEG resin (Watanabe Chemical Industries) was used as a resin for the peptide synthesis when the linker was PEG. The peptide, to which a peptide, a fatty acid, PEG, or a conjugate thereof is added as a linker, was also synthesized according to Example 1, unless otherwise stated in Example 9 or 10.

[1] = SPR, linker and payload (FITC, VivoTag) conjugates, read-out: KD
[2] = surface plasmon resonance, peptide vs hTfR, read-out: KD value, hTfR binding by SPR (class symbol)
[3] = SPR, hTfR, class symbols A-D, read-out: KD (column without head, continuation of the table series)

Kd (SPR, hTfR No. 894 variants with PEG12c linker (Table 2), read-out: KD): 0.001 to 0.1 µM
SMILES: CC[C@H](C)[C@@H]1NC(=O)[C@H](Cc2ccc(O)cc2)NC(=O)[C@H](Cc2ccc(O)cc2)NC(=O)[C@H](CC(N)=O)NC(=O)[C@H](Cc2c[nH]c3ccccc23)NC(=O)[C@H](C(C)C)NC(=O)[C@H](Cc2ccccc2)N(C)C(=O)[C@H](C(C)C)NC(=O)[C@H](C)NC(=O)CSC[C@@H](C(=O)NCCOCCOCCOCCOCCOCCOCCOCCOCCOCCOCCOCCOCCC(N)=O)NC(=O)[C@H](Cc2ccc(O)cc2)N(C)C(=O)[C@H](C)NC(=O)[C@H](CCCNC(=N)N)NC(=O)[C@H](CCCNC(=N)N)NC(=O)[C@H]([C@@H](C)CC)NC1=O [compound 123]

Kd [1]: 0.001 to 0.1 µM
SMILES: CC[C@H](C)[C@@H]1NC(=O)[C@H](Cc2ccc(O)cc2)NC(=O)[C@H](Cc2ccc(O)cc2)NC(=O)[C@H](CC(N)=O)NC(=O)[C@H](Cc2c[nH]c3ccccc23)NC(=O)[C@H](C(C)C)NC(=O)[C@H](Cc2ccccc2)NC(=O)[C@H](C(C)C)NC(=O)[C@H](C)NC(=O)[C@H](CO)NC(=O)[C@H](C)NC(=O)CSC[C@@H](C(=O)NCCOCCOCCOCCOCCOCCOCCOCCOCCOCCOCCOCCOCCC(=O)N[C@@H](CCCCNC(=O)c2ccc(-c3c4ccc(=O)cc-4oc4cc(O)ccc34)c(C(=O)O)c2)C(N)=O)NC(=O)[C@H](C)NC(=O)[C@H](Cc2c[nH]c3ccccc23)NC(=O)[C@H](CCCNC(=N)N)NC(=O)[C@H](CC(N)=O)NC(=O)[C@H]([C@@H](C)CC)NC1=O [compound 155] ({CH2CO}-ASAVFVWNYYIINRWAC[PEG12]K(X2)-NH2; thioether N-17)

Kd [2]: 0.001 to 0.1 µM
SMILES: CC[C@H](C)[C@@H]1NC(=O)[C@H](Cc2ccc(O)cc2)NC(=O)[C@H](Cc2ccc(O)cc2)NC(=O)[C@H](CC(N)=O)NC(=O)[C@H](Cc2c[nH]c3ccccc23)NC(=O)[C@H](C(C)C)NC(=O)[C@H](Cc2ccccc2)N(C)C(=O)[C@H](C(C)C)NC(=O)[C@H](C)NC(=O)CSC[C@@H](C(=O)N[C@H](CCC(=O)O)C(N)=O)NC(=O)[C@H](Cc2ccc(O)cc2)N(C)C(=O)[C@H](Cc2ccc(O)cc2)NC(=O)[C@H](CCCNC(=N)N)NC(=O)[C@H](C)NC(=O)[C@H]([C@@H](C)CC)NC1=O [compound 291] ({CH2CO}-AV[NMeF]VWNYYIIARY[NMeY]C[dE]-NH2; thioether N-15)

Kd [1]: 0.001 to 0.1 µM
SMILES: CC[C@H](C)[C@@H]1NC(=O)[C@H](Cc2ccc(O)cc2)NC(=O)[C@H](Cc2ccc(O)cc2)NC(=O)[C@H](CC(N)=O)NC(=O)[C@H](Cc2c[nH]c3ccccc23)NC(=O)[C@H](C(C)C)NC(=O)[C@H](Cc2ccccc2)NC(=O)[C@H](C(C)C)NC(=O)[C@H](C)NC(=O)CSC[C@@H](C(=O)NCCOCCOCCOCCOCCOCCOCCOCCOCCOCCOCCOCCOCCC(=O)N[C@@H](CCCCNC(=O)c2ccc(-c3c4ccc(=O)cc-4oc4cc(O)ccc34)c(C(=O)O)c2)C(N)=O)NC(=O)[C@H](CCCNC(=N)N)NC(=O)[C@H](Cc2ccccc2)NC(=O)[C@H](CCCNC(=N)N)NC(=O)[C@H](CC(=O)O)NC(=O)[C@H]([C@@H](C)CC)NC1=O [compound 148] ({CH2CO}-AVFVWNYYIIDRFRC[PEG12]K(X2)-NH2; thioether N-15)

Kd [3]: 0.001 to 0.1 µM
SMILES: CC[C@H](C)[C@@H]1NC(=O)[C@H](Cc2ccc(O)cc2)NC(=O)[C@H](Cc2ccc(O)cc2)NC(=O)[C@H](CC(N)=O)NC(=O)[C@H](Cc2c[nH]c3ccccc23)NC(=O)[C@H](C(C)C)NC(=O)[C@H](Cc2ccccc2)N(C)C(=O)[C@H](C(C)C)NC(=O)[C@H](C)NC(=O)CSC[C@@H](C(=O)NCC(=O)N[C@@H](CCCCN)C(N)=O)NC(=O)[C@H](Cc2ccc(O)cc2)N(C)C(=O)[C@H](Cc2ccc(O)cc2)NC(=O)[C@H](CCCNC(=N)N)NC(=O)[C@H](CCCNC(=N)N)NC(=O)[C@H]([C@@H](C)CC)NC1=O [compound 525]

Kd [2]: 0.1 to 1 µM
SMILES: CC[C@H](C)[C@@H]1NC(=O)[C@H](Cc2ccc(OC)cc2)NC(=O)[C@H](Cc2ccc(O)cc2)NC(=O)[C@H](CC(N)=O)NC(=O)[C@H](Cc2cn(CC(N)=O)c3ccccc23)NC(=O)[C@H](C(C)C)NC(=O)[C@H](Cc2cccc(Cl)c2)N(C)C(=O)[C@H](C(C)C)NC(=O)[C@H](C)NC(=O)CSC[C@@H](C(N)=O)NC(=O)[C@H](Cc2ccc(O)cc2)N(C)C(=O)[C@H](Cc2ccccc2)NC(=O)[C@@H](CCCNC(=N)N)NC(=O)C(C)(C)NC(=O)[C@H]([C@@H](C)CC)NC1=O [compound 304] ({CH2CO}-AV[NMePhe(3-Cl)]V[X3]NYY(Me)II[Aib][dR]F[NMeY]C-NH2; thioether N-15)

Kd [3]: 0.1 to 1 µM
SMILES: CC[C@H](C)[C@@H]1NC(=O)[C@H](Cc2ccc(OCCN)cc2)NC(=O)[C@H](Cc2ccc(O)cc2)NC(=O)[C@H](CC(N)=O)NC(=O)[C@H](Cc2c[nH]c3ccccc23)NC(=O)[C@H](C(C)C)NC(=O)[C@H](Cc2ccccc2)N(C)C(=O)[C@H](C(C)C)NC(=O)[C@H](C)NC(=O)CSC[C@@H](C(N)=O)NC(=O)[C@H](Cc2ccc(O)cc2)N(C)C(=O)[C@H](Cc2ccccc2)NC(=O)[C@H](CCCNC(=N)N)NC(=O)C(C)(C)NC(=O)[C@H]([C@@H](C)CC)NC1=O [compound 524]

SMILES: CC[C@H](C)[C@@H]1NC(=O)[C@H](Cc2ccc(O)cc2)NC(=O)[C@H](Cc2ccc(O)cc2)NC(=O)[C@H](CC(N)=O)NC(=O)[C@H](Cc2c[nH]c3ccccc23)N(C)C(=O)[C@H](C(C)C)NC(=O)[C@H](Cc2ccccc2)N(C)C(=O)[C@H](C(C)C)NC(=O)[C@H](C)NC(=O)CSC[C@@H](C(=O)NCC(=O)NCC(=O)N[C@@H](CCCNC(=N)N)C(=O)N[C@@H](CO)C(=O)N[C@@H](CCC(=O)O)C(=O)N[C@@H](CO)C(=O)N[C@@H](CCCCNC(=O)C2CCC(CN3C(=O)C=CC3=O)CC2)C(N)=O)NC(=O)[C@H](Cc2ccc(O)cc2)N(C)C(=O)[C@H](Cc2ccc(O)cc2)NC(=O)[C@H](CCCNC(=N)N)NC(=O)[C@H](CCCNC(=N)N)NC(=O)[C@H]([C@@H](C)CC)NC1=O (some centres unmarked) [compound 199]
Kd (hTfR binding by SPR, hTfR No. 894 variant peptides, linker-added peptides and payload conjugates (Table 2), read-out: KD value obtained from the SPR measurement): 0.001 to 0.1 µM

Kd [2]: 0.001 to 0.1 µM
SMILES: CCCC[C@@H]1NC(=O)[C@H]([C@@H](C)CC)NC(=O)[C@H](Cc2ccc(OC)cc2)NC(=O)[C@H](Cc2ccc(O)cc2)NC(=O)[C@H](CC(N)=O)NC(=O)[C@H](Cc2c[nH]c3ccccc23)N(C)C(=O)[C@H](C(C)C)NC(=O)[C@H](Cc2cccc(Cl)c2)N(C)C(=O)[C@H](C(C)C)NC(=O)[C@H](C)NC(=O)CSC[C@@H](C(=O)NCCOCCOCCOCCOCCC(N)=O)NC(=O)[C@H](Cc2ccc(O)cc2)N(C)C(=O)[C@H](Cc2ccccc2)NC(=O)[C@@H](CCCNC(=N)N)NC(=O)[C@H](CCCNC(=N)N)NC1=O [compound 334] ({CH2CO}-AV[NMePhe(3-Cl)]V[NMeW]NYY(Me)I[Nle]R[dR]F[NMeY]C[PEG4]-NH2; thioether N-15)

Kd (SPR, hTfR, class symbols A-D, read-out: KD): 0.1 to 1 µM
SMILES: CC[C@H](C)[C@@H]1NC(=O)[C@H](Cc2ccc(OC)cc2)NC(=O)[C@H](Cc2ccc(O)cc2)NC(=O)[C@H](CC(N)=O)NC(=O)[C@H](Cc2c[nH]c3ccccc23)N(C)C(=O)[C@H](C(C)C)NC(=O)[C@H](Cc2cccc(C(=O)O)c2)N(C)C(=O)[C@H](C(C)C)NC(=O)[C@H](C)NC(=O)CSC[C@@H](C(N)=O)NC(=O)[C@H](Cc2ccc(O)cc2)N(C)C(=O)[C@H](Cc2ccccc2)NC(=O)[C@@H](CCCNC(=N)N)NC(=O)[C@H](CCCNC(=N)N)NC(=O)[C@H]([C@@H](C)CC)NC1=O [compound 452]

Kd [1]: 0.001 to 0.1 µM
SMILES: CC[C@H](C)[C@@H]1NC(=O)[C@H](Cc2ccc(O)cc2)NC(=O)[C@H](Cc2ccc(O)cc2)NC(=O)[C@H](CC(N)=O)NC(=O)[C@H](Cc2c[nH]c3ccccc23)NC(=O)[C@H](C(C)C)NC(=O)[C@H](Cc2ccccc2)NC(=O)[C@H](C(C)C)NC(=O)[C@H](C)NC(=O)CSC[C@@H](C(=O)NCCOCCOCCOCCOCCOCCOCCOCCOCCOCCOCCOCCOCCC(=O)N[C@@H](CCCCNC(=O)c2ccc(-c3c4ccc(=O)cc-4oc4cc(O)ccc34)c(C(=O)O)c2)C(N)=O)NC(=O)[C@H](Cc2c[nH]cn2)N(C)C(=O)[C@H](CO)NC(=O)[C@H](CCCNC(=N)N)NC(=O)[C@H](Cc2ccccc2)NC(=O)[C@H](CCCNC(=N)N)NC(=O)[C@H](CC(=O)O)NC(=O)[C@H]([C@@H](C)CC)NC1=O [compound 149] ({CH2CO}-AVFVWNYYIIDRFRS[NMeH]C[PEG12]K(X2)-NH2; thioether N-17)
